pIC50: −log10 of the molar value.
How the values were obtained:
[1] = test system: 1A9; assay: Antiproliferative activity against human 1A9 cells; type: functional, cell-based
[2] = Inhibition of rat brain tubulin polymerization

**Q.** With `CC[C@H](C)[C@H](NC(=O)[C@@H]1CCCN1C)C(=O)N[C@H](CC(=O)c1nc(C(=O)N[C@H](CCC(=O)O)Cc2ccccc2)cs1)C(C)C` as the molecule, how does the pIC50 [1] read?
**A.** 4.30

**Q.** What about the pIC50 [2] of the same molecule?
**A.** 4.96

**Q.** With `CC[C@H](C)[C@H](NC(=O)[C@H]1CCCCN1)C(=O)N[C@H](CC(=O)c1nc(C(=O)N[C@H](CCC(=O)O)Cc2ccccc2)cs1)C(C)C` as the molecule, how does the pIC50 [1] read?
**A.** < 4.30

**Q.** What about the pIC50 [2] of the same molecule?
**A.** 5.36

**Q.** With `CC[C@H](C)[C@H](NC(=O)[C@H]1CCCN1C)C(=O)N[C@H](CC(=O)c1nc(C(=O)N[C@@H](Cc2ccccc2)CC(C)(C)C(=O)O)cs1)C(C)C` as the molecule, how does the pIC50 [1] read?
**A.** 5.49

**Q.** And the pIC50 [2]?
**A.** 5.57

**Q.** With `CC[C@H](C)[C@H](NC(=O)[C@H]1CCCCN1C)C(=O)N[C@H](CC(=O)c1nc(C(=O)N[C@@H](Cc2ccccc2)CC(C)(C)C(=O)O)cs1)C(C)C` as the molecule, how does the pIC50 [1] read?
**A.** 6.52

**Q.** What about the pIC50 [2] of the same molecule?
**A.** 5.82

**Q.** What does the source list for `CC[C@H](C)[C@H](NC(=O)[C@@H]1CCCCN1C)C(=O)N[C@H](CC(=O)c1nc(C(=O)N[C@H](CCC(=O)O)Cc2ccccc2)cs1)C(C)C`?
**A.** pIC50 [1]: < 4.30; pIC50 [2]: 4.89

**Q.** With `CC[C@H](C)[C@H](NC(=O)[C@H]1CCCN1C)C(=O)N[C@H](CC(=O)c1nc(C(=O)N[C@H](CCC(=O)O)Cc2ccccc2)cs1)C(C)C` as the molecule, how does the pIC50 [1] read?
**A.** 4.62

**Q.** And the pIC50 [2]?
**A.** 5.64

**Q.** With `CC[C@H](C)[C@H](NC(=O)[C@@H]1CCCCN1)C(=O)N[C@H](CC(=O)c1nc(C(=O)N[C@H](CCC(=O)O)Cc2ccccc2)cs1)C(C)C` as the molecule, how does the pIC50 [1] read?
**A.** < 4.30

**Q.** And the pIC50 [2]?
**A.** < 4.70

**Q.** With `CC[C@H](C)[C@H](NC(=O)[C@H]1CCCN1)C(=O)N[C@H](CC(=O)c1nc(C(=O)N[C@H](CCC(=O)O)Cc2ccccc2)cs1)C(C)C` as the molecule, how does the pIC50 [1] read?
**A.** < 4.30

**Q.** What about the pIC50 [2] of the same molecule?
**A.** < 4.70

**Q.** With `CC[C@H](C)[C@H](NC(=O)[C@H]1CCCCN1C)C(=O)N[C@H](CC(=O)c1nc(C(=O)N[C@H](CCC(=O)O)Cc2ccccc2)cs1)C(C)C` as the molecule, how does the pIC50 [1] read?
**A.** 5.40

**Q.** What about the pIC50 [2] of the same molecule?
**A.** 6.22

**Q.** Which results are given for `CC[C@H](C)[C@H](NC(=O)[C@@H]1CCCN1)C(=O)N[C@H](CC(=O)c1nc(C(=O)N[C@H](CCC(=O)O)Cc2ccccc2)cs1)C(C)C`?
**A.** pIC50 [1]: < 4.30; pIC50 [2]: < 4.70

**Q.** With `COc1ccc(/C=C\c2cc(OC)c(OC)c(OC)c2)cc1O` [COMBRETASTATIN A4] as the molecule, how does the pIC50 [1] read?
**A.** 8.44

**Q.** What does the source list for `CN[C@H](C(=O)N[C@H](C(=O)N(C)[C@H](/C=C(\C)C(=O)O)C(C)C)C(C)(C)C)C(C)(C)c1ccccc1` [TALTOBULIN]?
**A.** pIC50 [1]: 9.52; pIC50 [2]: 6.15

**Q.** With `CC[C@H](C)[C@H](NC(=O)[C@H]1CCCCN1C)C(=O)N(COC(=O)CC(C)C)[C@H](C[C@@H](OC(C)=O)c1nc(C(=O)N[C@@H](Cc2ccc(O)cc2)C[C@H](C)C(=O)O)cs1)C(C)C` [TUBULYSIN-A] as the molecule, how does the pIC50 [2] read?
**A.** 6.12
